{"source": "patent US11376271B1", "about": "“Methods of ameliorating the effects of alcoholic liver damage” (FULGENT LIFE INC., priority 2021, dated 2022)", "key": {"male C57BL/6J mice [1]": {"system": "male C57BL/6J mice", "assay": "Blood ethanol and acetaldehyde levels after ethanol administration"}, "male C57BL/6J mice [2]": {"system": "male C57BL/6J mice", "assay": "Liver histopathology by Oil Red O staining", "format": "in vivo", "settings": "500 mg/kg intragastric 15 min prior to 8 ml/kg ethanol", "method": "Liver histopathology was detected by Oil Red 0 staining. According to the standard operating procedure, some liver tissues were fixed for histopathological assessment. The other part of the liver was stored at −80° C. […] frozen sections were stained with Oil Red 0 to detect liver steatosis. The stained sections were examined by a 400× optical microscope. The level of VLDL in serum samples was examined with a Bio-Tek synergy2 Multiscan Spectrum (Botten Instruments Co.)."}, "male C57BL/6J mice [3]": {"system": "male C57BL/6J mice", "assay": "Plasma AST and ALT in acute alcohol-induced hepatotoxicity", "format": "in vivo", "method": "Liver marker enzymes in plasma, such as aspartate transaminase (AST) and alanine aminotransferase (ALT), are known as sensitive biochemical markers of early liver damage. […] Six hours after treatment with alcohol, blood samples were taken to detect biochemical indexes. […] The control group was given the same amount of normal saline in place of the ethanol. […] The plasma levels of AST and ALT were determined by collecting blood samples in an anti-coagulant test tube and centrifuging at 1500 rpm for 10 minutes to attain plasma. The plasma AST and ALT activity was determined with a commercial kit (from Sigma-Aldrich) based on the manufacturer's instructions."}, "AML12 cells [4]": {"system": "AML12 cells", "assay": "Rescue from hydrogen peroxide (HP) genotoxicity: cell survival and NAD+ level", "format": "cell-based", "settings": "3 h", "method": "Because the increasing extent of NAD+ concentration is of interest, whether NADH can improve the cell survival rate under the stressful conditions of depletion of NAD+ was also assessed. To that end, as genotoxicity can lead to DNA damage, activate poly(ADP-ribose) polymerases and induce NAD+ depletion, genotoxicity was tested. Strong genotoxicity will lead to severe consumption of NAD+ by cells, resulting in cell death. To test genotoxicity, AML12 cells were treated with 500 μM hydrogen peroxide (HP) for 3 hours in the presence or absence of 1 mM NADH, and then the cells were counted and NAD+ was detected in the samples co-treated with NADH (1 mM) or its vehicle. FIG. 4A is a graph comparing the cell survival rate of the HP treated cells, NADH treated cells, and the HP+NADH treated cells relative to a control. And FIG. 4B is a graph comparing the NAD+ level of the HP treated cells, NADH treated cells, and the HP+NADH treated cells relative to a control. The cell survival rates and cellular NAD+ levels in FIGS. 4A-B are expressed as mean±SD.\nThe effects of NADH and NMN at a lower concentration (250 μM) on AML12 cells was also tested in a separate assay. Specifically, AML12 cells were treated with 500 μM HP in the presence or absence of 250 μm NADH or NMN for 3 h. FIG. 4C is a graph comparing the cell survival rate of the HP treated cells, HP+NADH treated cells, and the HP+NMN treated cells relative to a control. And FIG. 4D is a graph comparing the NAD+ level of the HP treated cells, HP+NADH treated cells, and the HP+NMN treated cells relative to a control. The cell survival rate and cellular NAD+ levels in FIGS. 4C-D are expressed as mean±SD."}, "AML12 cells [5]": {"system": "AML12 cells", "assay": "Apoptosis markers Annexin V and Caspase 3/7 by flow cytometry", "format": "cell-based", "settings": "1 mM, 24 hours", "experimental": "To assess this toxicity, C2C12, Neuro2a and AML12 cells were treated with 1 mM NADH for 24 hours, and then the total cell numbers were measured. […] The cells were stained with trypan blue and then counted with a hemocytometer. […] The Annexin V/PI staining kit and Caspases3/7/SYTOX dead cell staining kit (Life Technologies) were used and cells were counted with a BD FACSCelesta™ flow cytometer. The quadrants of apoptotic cells, necrotic cells and living cells were identified and quantified according to the manufacturer's instructions.\nTo examine apoptotic markers, AML12 cells were stained for Annexin V and Caspase 3/7, and cells were counted with a flow cytometer. […] Data are expressed as mean±SD, n=3. Quadrants with live cells (brown), necrotic cells (gray) and apoptotic cells (blue) were quantified."}, "AML12 cells [6]": {"system": "AML12 cells", "assay": "NAD+/NADH ratio in AML12 cells", "settings": "1 mM, 6 h, vs control"}, "male C57BL/6J mice [7]": {"system": "male C57BL/6J mice", "assay": "Liver MDA and SOD after acute alcohol ingestion", "format": "in vivo", "settings": "500 mg/kg intragastric 15 min prior to 8 ml/kg ethanol; liver 6 h after alcohol", "method": "Six hours after treatment with alcohol, liver tissues were taken for determination of MDA and SOD. Liver samples were prepared with homogenization in cold isotonic saline. The homogenate (10%, w/v) was centrifuged at 4500 g for 10 minutes and the supernatant was used for biochemical analysis. The MDA, SOD and TG levels were determined with commercial kits (Abcam, #ab118970; Thermofisher, #EIASODC and Abcam, ab65336) according to the manufacturer's instructions. The results were normalized to the total protein determined by BCA Protein Assay Kit (Abcam, #ab102536) according to the manufacturer's instructions."}, "[8]": {"settings": "500 mg/kg intragastric 15 min before 8 ml/kg ethanol (40% w/v)"}, "[9]": {"settings": "500 mg/kg intragastric 30 min prior to 8 ml/kg ethanol (40% w/v), blood 6 h after alcohol"}, "[10]": {"settings": "40% ethanol every 24 h for 3 days, then 500 mg/kg every day for three days"}, "[11]": {"settings": "500 μM HP + 250 μM compound, AML12 cells"}}, "data": [{"smiles": "NC(=O)C1=CN([C@@H]2O[C@H](COP(=O)(O)OP(=O)(O)OC[C@H]3O[C@@H](n4cnc5c(N)ncnc54)C(O)C3O)C(O)C2O)C=CC1", "note": "(stereo partly shown) [NADH, nicotinamide adenine dinucleotide (NAD)+hydrogen (H)]", "values": [{"measurement": "acetaldehyde in the blood two hours after alcohol administration", "setting": "male C57BL/6J mice [1]; [8]", "result": "significantly reduced"}, {"measurement": "blood acetaldehyde levels within two hours after ethanol administration", "setting": "male C57BL/6J mice [1]; [8]", "result": "significantly increased"}, {"measurement": "ethanol in the blood", "setting": "male C57BL/6J mice [1]; 500 mg/kg oral 15 min before 8 ml/kg ethanol (40% w/v), 30 minutes after ethanol", "result": "significantly reduced"}, {"measurement": "degree of liver fatty degeneration (Oil Red O)", "setting": "male C57BL/6J mice [2]", "result": "noticeably decreased"}, {"measurement": "plasma ALT level, pre-treatment", "setting": "male C57BL/6J mice [3]; [9]", "result": "significantly reduce"}, {"measurement": "plasma AST level, pre-treatment", "setting": "male C57BL/6J mice [3]; [9]", "result": "significantly reduce"}, {"measurement": "plasma ALT level, treatment after alcohol exposure", "setting": "male C57BL/6J mice [3]; [10]", "result": "significantly reduce"}, {"measurement": "plasma AST level, treatment after alcohol exposure", "setting": "male C57BL/6J mice [3]; [10]", "result": "significantly reduce"}, {"measurement": "effect on NAD+ levels under HP", "setting": "AML12 cells [4]; [11]", "result": "protective effect"}, {"measurement": "effect on cell survival under HP", "setting": "AML12 cells [4]; [11]", "result": "protective effect"}, {"measurement": "NAD+ level in HP co-treated cells", "setting": "AML12 cells [4]; 500 μM HP + 1 mM NADH, AML12 cells", "result": "remained high"}, {"measurement": "cell survival rate under HP+NADH treatment", "setting": "AML12 cells [4]; 500 μM HP + 1 mM NADH, AML12 cells (HP alone 12%)", "result": "~72", "unit": "%"}, {"measurement": "Annexin V or caspase 3/7 apoptosis markers vs control", "setting": "AML12 cells [5]", "result": "no significant changes"}, {"measurement": "NAD+/NADH ratio", "setting": "AML12 cells [6]", "result": "significantly increase"}, {"measurement": "MDA content in the liver", "setting": "male C57BL/6J mice [7]", "result": "significantly reduce"}, {"measurement": "SOD activity in the liver", "setting": "male C57BL/6J mice [7]", "result": "increase"}]}]}
